# Source: paper PMC13242511, “Disrupting Notch signalling by a small molecule inhibiting dihydroorotate dehydrogenase activity” (Scientific Reports, 2026)
# Read-outs that look alike come from different tables or passages of the source.
# Experiments:
# TALL-1 cells = assay: Growth inhibition, metabolic activity (CellTiter-Glo); format: cell-based; conditions: Homo sapiens; TALL-1, six days; read-out: approximated IC50, growth (metabolic activity)
# Description: (§1) We next investigated whether compounds A-E affected growth and viability of cell lines from T-cell acute lymphoblastic leukaemia (T-ALL) and breast cancer, two tumour types in which elevated Notch signalling has been implicated in tumorigenesis. […] When testing analogues of compounds B and C, five of the seven B analogues and one of the two C analogues produced dose–response curves and IC50s, which however were higher compared to the original hits (Supplemental Fig. 5A; IC50s are presented in Supplemental Table 6).
# (§2) Compounds were spotted on white 384-well tissue culture plates (Greiner, cat #781080) using an Echo 525 Acoustic liquid handler (Labcyte). Cells were grown to 80% confluence, detached if required, counted and 20 µl containing 2000–4000 cells per well was then seeded in each well and cultivated for three (4,000 cells seeded) and six days (2,000 cells seeded). […] Luciferase activity (reading out metabolic activity) was determined using the CellTiter-Glo 2.0 kit (CTG, Promega, cat #G9242) following the manufacturer’s instructions and luminescence was measured on a SpectraMaxi3 or Varioscan plate reader (Molecular Devices, Thermofisher).
# MDA-MB-468 cells [1] = assay: as above; format: cell-based; conditions: Homo sapiens; MDA-MB-468, six days; read-out: approximated IC50, metabolic activity
# Description: as §1, §2
# DHODH = target: T1, DHODH (Homo sapiens, UniProt Q02127); assay: DHODH enzyme activity assay (Resorufin fluorescence, Reaction Biology); format: biochemical
# T1 construct: purchased Reaction Biology (contract assay)
# T1 sequence (Q02127 whole entry): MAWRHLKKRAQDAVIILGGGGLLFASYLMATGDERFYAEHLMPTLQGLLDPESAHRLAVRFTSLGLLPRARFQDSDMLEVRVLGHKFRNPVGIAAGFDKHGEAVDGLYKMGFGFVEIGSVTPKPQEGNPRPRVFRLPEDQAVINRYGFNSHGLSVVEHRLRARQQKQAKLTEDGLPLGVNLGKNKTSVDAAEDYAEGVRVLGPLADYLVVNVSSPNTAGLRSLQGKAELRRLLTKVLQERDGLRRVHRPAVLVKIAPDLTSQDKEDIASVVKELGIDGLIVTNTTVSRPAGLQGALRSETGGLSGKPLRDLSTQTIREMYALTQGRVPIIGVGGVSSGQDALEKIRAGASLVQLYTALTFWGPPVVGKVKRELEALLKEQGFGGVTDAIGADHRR
# Description: DHODH enzyme activity was determined via fluorescence-based quantification (Resorufin fluorescence as endpoint measurement) at Reaction Biology. Reference compound BAY2402234 was measured in singletons in two biological replicates and compounds were measured in technical replicates within the indicated dose-ranges. Values were normalized to DMSO control and dose–response curves were fitted using the log(inhibitor) versus response – Variable slope (model: Y = Bottom + (Top–Bottom)/(1 + 10^((LogIC50-X)*HillSlope)) equation.
# NOTCH1 = assay: Cycloheximide chase experiment (half-life of cleaved NOTCH1); format: cell-based; design: key to NOTCH1 (TMICD), DMSO as reference: western blot band intensity normalised to beta-Actin, relative to DMSO; conditions: for NOTCH1/ (TMICD) band intensity: 5 µM
# Description: HEK293T Notch reporter cells (clone #A1-11) were grown to 80% confluence, detached and counted. 50,000 cells were then seeded in each well of a 24-well tissue culture plate (Sarstedt, cat # 83.3924), cultivated to approximately 85% confluence and treated with 5 µM of the respective compound and 50 µg/ml Cycloheximide (CHX) solution (Sigma-Aldrich, cat #C4859-1ML). Each well was then incubated with 500 µl of compound and CHX solution and compound and CHX solution were added after the indicated intervals to another well for a total time of eight hours. Next, medium was aspirated off and cells were lysed in RIPA buffer (Thermofisher, cat #89900) containing Protease and Phosphatase inhibitors (Thermofisher, cat #78442) for 30 min on ice. Lysates were thoroughly vortexed, centrifugated for 10 min at > 13,000×g and supernatant was transferred to a fresh cup and stored at -80 °C.
# Cells were washed in ice-cold PBS and incubated for 30 min on ice with RIPA cell lysis buffer (Thermofisher, cat #89900) containing protease and phosphatase inhibitors (Thermofisher, cat #78442), scraped off and homogenized using a 25G syringe, and subsequently centrifugated for 10 min at > 13,000xg. […] After electrophoresis, gels were placed directly onto a TransBlot Turbo PVDF or nitrocellulose membrane (Bio-rad, cat #1704157 and cat #1704159) and transferred using the “HIGH MW” protocol (Bio-Rad). Subsequently, membranes were blocked for 1 h at room temperature using Clear Milk Blocking Buffer (ThermoFisher, cat #37587) supplemented with 0.1% Tween20 (Sigma-Aldrich, cat #P1379). Detection of antibody binding was performed by using Clarity Western ECL-Substrate (Bio-rad, cat #1705060S). Beta-Actin protein signals were used as a loading control. Western blot membranes were in some experiments stripped after development (indicated in the figure in each respective case) by washing the membranes twice for 10 min in PBS, followed by incubation in membranes in western blot stripping buffer (ThermoFisher, cat #21059) for 30 min at room temperature and gentle agitation. Stripped membranes were washed twice with PBS and incubated for 30 min in blocking buffer before incubation with primary antibody. A list of all antibodies used in this study is provided in Supplemental Table 6. Uncropped western blot images are provided in […]. Protein expression levels of western blot bands were quantified using Fiji (V.2.16) with beta-Actin signals for normalisation (Supplemental Table 8). Uncropped western blot images are provided in Supplemental Fig. 10.
# MDA-MB-468 cells [2] = assay: Three dose response gene expression analysis (qRT-PCR); format: cell-based; conditions: 0.1, 1 and 10 µM, 24 h
# Description: Total RNA from cell lines was isolated using the RNeasy Mini kit (cat #74104, Qiagen), according to the manufacturer’s instructions. qRT-PCR was performed as described elsewhere[51] with some minor modifications: RNA was reverse transcribed to cDNA using iScript Reverse Transcription Supermix (cat # 1708841, Bio-rad). cDNA was then diluted 1:5 in nuclease free H20. qRT-PCR was performed on a C1000 Touch thermal cycler (Bio-rad) and gene expression was detected with SsoAdvanced Universal SYBR Green Supermix (cat # 1725274, Bio-rad). Gene expression was determined by normalizing to GAPDH mRNA expression levels and fold expression change was calculated using the ΔΔCT method (ΔΔCT = ΔCt sample − Δct control). Primers used in qPCR are shown in Supplemental Table 9.
# Adherent breast cancer cells were seeded in 24-well cell culture plates (ThermoFisher, Nunc, Delta surface, cat #144530) and T-ALL cells growing in suspension (Jurkat, RPMI-8402) were seeded in non-adherent 24-well plates (ThermoFisher, Nunc, cat […]). 60.000 cells were seeded and treated with 0.1, 1 and 10 µM of each compound. […] Cells were harvested 24 h post treatment and RNA isolation and gene expression analysis (qRT-PCR) was performed as described above.
# HEK293T cells = assay: Growth inhibition, metabolic activity (CellTiter-Glo); format: cell-based; conditions: six days, Supplemental Fig. 5E
# Description: We also tested three analogues to compound B and one analogue to compound C. […] To assess the effects of compound A-E in a cell line with very low levels of Notch signalling we repeated the growth inhibition assay in HEK293T cells.
# as §2
# [3] = Fig. 7B, read-out: IC50s DHODH assay: IC50
# [4] = dose-range [M] 4.00E-05- 2.03E-09, 3 steps
# [5] = dose-range [M] 4.00E-05- 2.03E-09, 3 steps, read-out: IC50
# [6] = timepoint 0 (hours after cycloheximide)
# [7] = timepoint 1 (hours after cycloheximide)
# [8] = timepoint 2 (hours after cycloheximide)
# [9] = timepoint 4 (hours after cycloheximide)
# [10] = timepoint 6 (hours after cycloheximide)
# [11] = timepoint 8 (hours after cycloheximide)
smiles,measurement,setting,value
Cc1ccc2[nH]c3c(c2c1)CCOC31CCN(Cc2ccccc2-c2ccccc2)CC1 [compound B],IC50,TALL-1 cells,6.7 µM
same,IC50,MDA-MB-468 cells [1],1.1 µM
same,IC50s DHODH assay: Hill-Slope,DHODH; Fig. 7B,-5.7
same,IC50,DHODH; [3],2.2e-06 M
same,Hill-slope,DHODH; [4],-5.7
same,IC50,DHODH; [5],2.2e-06 M
COc1cccc(CNc2ccc(N3CCCCC3)cc2)c1OCc1cccs1 [compound C],IC50,MDA-MB-468 cells [1],1.7 µM
same,NOTCH1/ (TMICD) band intensity,NOTCH1; [6],11149.0
same,NOTCH1 (TMICD) normalized to beta-Actin (used for plots),"NOTCH1; timepoint 0, 5 µM",0.8
same,"NOTCH1 (TMICD), DMSO as reference","NOTCH1; timepoint 0, 5 µM",1.0
same,NOTCH1/ (TMICD) band intensity,NOTCH1; [7],9563.6
same,NOTCH1 (TMICD) normalized to beta-Actin (used for plots),"NOTCH1; timepoint 1, 5 µM",0.7
same,"NOTCH1 (TMICD), DMSO as reference","NOTCH1; timepoint 1, 5 µM",0.9
same,NOTCH1/ (TMICD) band intensity,NOTCH1; [8],5022.2
same,NOTCH1 (TMICD) normalized to beta-Actin (used for plots),"NOTCH1; timepoint 2, 5 µM",0.4
same,"NOTCH1 (TMICD), DMSO as reference","NOTCH1; timepoint 2, 5 µM",0.5
same,NOTCH1/ (TMICD) band intensity,NOTCH1; [9],5169.6
same,NOTCH1 (TMICD) normalized to beta-Actin (used for plots),"NOTCH1; timepoint 4, 5 µM",0.347
same,"NOTCH1 (TMICD), DMSO as reference","NOTCH1; timepoint 4, 5 µM",0.442
same,NOTCH1/ (TMICD) band intensity,NOTCH1; [10],6218.3
same,NOTCH1 (TMICD) normalized to beta-Actin (used for plots),"NOTCH1; timepoint 6, 5 µM",0.362
same,"NOTCH1 (TMICD), DMSO as reference","NOTCH1; timepoint 6, 5 µM",0.46
same,NOTCH1/ (TMICD) band intensity,NOTCH1; [11],4511.9
same,NOTCH1 (TMICD) normalized to beta-Actin (used for plots),"NOTCH1; timepoint 8, 5 µM",0.277
same,"NOTCH1 (TMICD), DMSO as reference","NOTCH1; timepoint 8, 5 µM",0.352
same,DHODH enzyme activity (in words),DHODH; Fig. 7B,appeared to reduce DHODH enzyme activity across the dose response range
same,IC50s DHODH assay: Hill-Slope,DHODH; Fig. 7B,-15.6
same,IC50s DHODH assay: IC50,DHODH; Fig. 7B,indeterminate
same,IC50,"DHODH; broader dose range, Fig. 7D, read-out: IC50, relative DHODH activity",1.01e-08 M
same,Hill-slope,DHODH; [4],-15.5
same,LogIC50,DHODH; [4],Unstable
same,DHODH assay,"DHODH; overview in comparison to compound C, Supplemental Fig. 9",active
"CC(C)(C)c1ccc(Oc2ccc(N)cn2)cc1 [CB-103, reference compound]",IC50,TALL-1 cells,0.3 µM
same,HES4 expression,MDA-MB-468 cells [2],upregulation
Cc1nn(-c2nc3ccccc3s2)c(O)c1C1OC(=O)c2ccccc21 (stereo not shown) [compound E],growth inhibitory effect,HEK293T cells,did not exert a growth inhibitory effect
same,IC50s DHODH assay: Hill-Slope,DHODH; Fig. 7B,-4.4
same,Hill-slope,DHODH; [4],-4.4
same,IC50,DHODH; [5],3.7e-05 M
CCc1c(C(=O)N(C)Cc2cnn(C(C)C)c2)[nH]c2ccccc12 [compound A],growth inhibitory effect,HEK293T cells,did not exert a growth inhibitory effect
same,IC50s DHODH assay: Hill-Slope,DHODH; Fig. 7B,-4.5
same,IC50,DHODH; [3],2.86e-05 M
same,Hill-slope,DHODH; [4],-4.5
same,IC50,DHODH; [5],2.9e-05 M
NC(=O)c1c(NC(=O)NCc2cccnc2)sc2c1CCC2 [compound D],growth inhibitory effect,HEK293T cells,did not exert a growth inhibitory effect
same,IC50s DHODH assay: Hill-Slope,DHODH; Fig. 7B,-5.0
same,Hill-slope,DHODH; [4],-5.0
same,IC50,DHODH; [5],9.6e-06 M
"CC(C)(C(=O)NCC(F)(F)C(F)(F)F)C(=O)N[C@@H]1C(=O)Nc2ccccc2-c2ccccc21 [RO4929097, reference compound]",protein stability of NOTCH1 (in words),"NOTCH1; cycloheximide chase, Supplemental Fig. 8B",enhanced protein stability
same,NOTCH1/ (TMICD) band intensity,NOTCH1; [6],20583.6
same,NOTCH1 (TMICD) normalized to beta-Actin (used for plots),"NOTCH1; timepoint 0, 5 µM",1.3
same,"NOTCH1 (TMICD), DMSO as reference","NOTCH1; timepoint 0, 5 µM",1.0
same,NOTCH1/ (TMICD) band intensity,NOTCH1; [7],14235.7
same,NOTCH1 (TMICD) normalized to beta-Actin (used for plots),"NOTCH1; timepoint 1, 5 µM",0.8
same,"NOTCH1 (TMICD), DMSO as reference","NOTCH1; timepoint 1, 5 µM",0.6
same,NOTCH1/ (TMICD) band intensity,NOTCH1; [8],11993.7
same,NOTCH1 (TMICD) normalized to beta-Actin (used for plots),"NOTCH1; timepoint 2, 5 µM",0.6
same,"NOTCH1 (TMICD), DMSO as reference","NOTCH1; timepoint 2, 5 µM",0.5
same,NOTCH1/ (TMICD) band intensity,NOTCH1; [9],14001.0
same,NOTCH1 (TMICD) normalized to beta-Actin (used for plots),"NOTCH1; timepoint 4, 5 µM",0.8
same,"NOTCH1 (TMICD), DMSO as reference","NOTCH1; timepoint 4, 5 µM",0.6
same,NOTCH1/ (TMICD) band intensity,NOTCH1; [10],9107.8
same,NOTCH1 (TMICD) normalized to beta-Actin (used for plots),"NOTCH1; timepoint 6, 5 µM",0.8
same,"NOTCH1 (TMICD), DMSO as reference","NOTCH1; timepoint 6, 5 µM",0.6
same,NOTCH1/ (TMICD) band intensity,NOTCH1; [11],9737.6
same,NOTCH1 (TMICD) normalized to beta-Actin (used for plots),"NOTCH1; timepoint 8, 5 µM",0.7
same,"NOTCH1 (TMICD), DMSO as reference","NOTCH1; timepoint 8, 5 µM",0.53
same,c-MYC expression,MDA-MB-468 cells [2],did not reduce
